Here are results for 21 compounds from patent publication US20250129021A1, “SMALL MOLECULE PROTEIN SYNTHESIS MODULATORS” (Interdict Bio, Inc., priority 2023, published 2025).

As a reminder, the IC50 is the midpoint of a concentration-inhibition curve.

Some results are limits rather than exact numbers.

What all share (assay type): biochemical
For one test, the system named is BCL-2. The test can be described thus: In vitro transcription-translation (IVTT) assay, BCL-2 reporter. Particulars: HeLa S3 lysate, sfGFP/mCherry ratio, 2 hrs at 30° C. The source says:
All reporter constructs have been cloned into the pT7CFE1-CHis plasmid (ThermoFisher #88860) using Gibson assembly procedures (NEB #E2611L). The parental pT7CFE1-CHis plasmid contains an EMCV IRES at the 5′UTR for translation initiation, a multiple-cloning site (MCS) for gene insertion, an optional C-terminal His-epitope tag, and polyA sequence in the 3′UTR to regulate mRNA stability. All reporters are designed to be inserted at the MCS to include a red fluorescent protein (mCherry), P2A self-cleaving peptide which releases the preceding mCherry protein product, and a fusion open reading frame containing a 3×FLAG epitope, a peptide sequence of interest (TEST), and green fluorescent protein (sfGFP).
Construct Plasmid Preparation: All plasmids are isolated from MACH1 cells (ThermoFisher) grown overnight in ampicillin-containing luria broth, and purified using ZymoPure Express Plasmid Midiprep Kit (Zymo Research). Constructs are sequenced verified and diluted to a working concentration of 110 ng/μL.
HeLa S3 Lysate Preparation: HeLa S3 cell pellets are acquired from Ipracell/Ipratech (Belgium) and shipped as 4 mL frozen cell pellets on dry ice for storage at −80° C. until use. The procedure for lysate preparation is as follows. Prepare 1× Lysis Buffer, cold and stored on ice:
Each preparation takes 8 cell pellets (4 ml packed volume each, approximately 1.0×10^9 cells per pellet). Thaw cell pellets from −80° C. on ice for 90 mins. Lay pellets horizontally on top of the ice and rotate every 30 mins to ensure even thawing. Once thawed, add 4 mL of cold lysis buffer to each pellet, and using a serological pipet, gently pipet up and down to break up clumps. Incubate resuspended cells in ice for an additional 30 mins (plunged into ice). During 30 min incubation, rinse and RNase-zap (Ambion) glass dounces (use loose pestle “A”), gently dry and place on ice until needed. Prepare RNase-free Eppendorf tubes for spinning and for batch storage. Add batch labels to 1.5-1.7 mL RNase-free microcentrifuge tubes (labeling scheme below). Each batch will have an extra 1.5-1.7 mL RNase-free microcentrifuge tube for 40 μL of lysate, label the top of this tube (labeling scheme below). After 30 min incubation, transfer all 8 mL of cell pellet to dounce. Cell lysis is complete after douncing 100 times. Aliquot cell lysis into 1.5-1.7 mL temporary-microcentrifuge tubes. Place tubes in centrifuge with “fins” out, and spin at 1,200×g for 5 mins. After the first spin use a 1 mL pipet to resuspend each tube and repeat spin. This acts as an additional lysis step, is more vigorous and increases lysate yield. During second spin get liquid N2 and a fresh conical tube on ice. After spin is complete, transfer supernatant (lysate) from microcentrifuge tubes into the 50 mL conical tube and keep on ice. Repeat steps 10-14 for all other cell pellets until completed. Once all cell lysate has been transferred to the 50 mL conical tube pipet to mix so the solution is homogenous. Transfer 1 mL of lysate into batch-labeled microcentrifuge tubes and flash freeze in liquid nitrogen. Be sure to pipet up and down to mix throughout transfer step. Place all tubes in the […] for long-term storage.
In vitro transcription-translation assay setup: Each assay includes a master mix containing lysate and shared components, a 96-well plate containing compound titrations for testing, a 96-well DNA plate with reporter constructs to be tested, 96-well skirted PCR plates, and 96-well flat-bottom, black, fluorescent assay plates. […]

For a further test, the system named is CCND1. The test can be described thus: In vitro transcription-translation (IVTT) assay, CCND1 reporter. Particulars: HeLa S3 lysate, sfGFP/mCherry ratio. The procedure, abridged:
(§1)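 Reporter: mCherry, P2A, then 3×FLAG-target peptide-sfGFP fusion, IRES-initiated; HeLa S3 lysate IVTT; cpd dilutions 30 μM−0.1 μM half-log in 100% DMSO (dilution-plate conc); DNA added last; 2 h, 30° C; PBS quench.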

For the next test, the system named is MCL-1. The test can be described thus: In vitro transcription-translation (IVTT) assay, MCL-1 reporter. Conditions: HeLa S3 lysate, sfGFP/mCherry ratio, 2 hrs at 30° C. The method in brief:
as §1

The test system of another test is MYC. Description: In vitro transcription-translation (IVTT) assay, MYC reporter. Conditions: HeLa S3 lysate, 2 hrs at 30° C. The method in brief:
as §1

Another test relates to NFKB1. The test can be described thus: In vitro transcription-translation (IVTT) assay, NFKB1 reporter. Conditions: HeLa S3 lysate, sfGFP/mCherry ratio. The method in brief: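 Cell-free HeLa S3 lysate reactions expressing sfGFP/mCherry reporter constructs ran 2 h at 30 °C with compound from half-log DMSO series (30 μM–0.1 μM as prepared), then were quenched with PBS. No-DNA background was subtracted, and the sfGFP/mCherry ratio was normalized to the no-drug control and fit for IC50.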

Where [1] appears, read: IVTT assay, MYC reporter, normalized sfGFP/mCherry ratio, half-log dilutions 30 μM-0.1 μM.

Consider `COc1ccc(C[C@H]2NC[C@H](O)[C@H]2OC(=O)NCc2n[nH]nc2COCc2ccccc2)cc1` [Cmpd V187805], for which the IC50 in the test on BCL-2, in the test with CCND1 (2 hrs at 30° C.) and in the test with MCL-1 was more than 30 µM each time.
For `COc1ccc(C[C@H]2NC[C@H](O)[C@H]2OC(=O)NCc2cc(Cl)[nH]n2)cc1` [Cmpd V187860], the IC50 in the test on BCL-2, in the test with MYC (sfGFP/mCherry ratio), in the test with CCND1 (2 hrs at 30° C.) and with MCL-1 was less than 10 µM each time.
On to `COc1ccc(C[C@H]2NC[C@H](O)[C@H]2OC(=O)NCC(=O)N[C@@H](C)C(N)=O)cc1` [Cmpd V188022], for which the IC50 with BCL-2 is 20 to 30 µM; in the test on MYC (sfGFP/mCherry ratio), 10 to 20 µM; in the test on CCND1 (2 hrs at 30° C.), more than 30 µM; in the test with MCL-1 it was less than 10 µM.
For the compound `COc1ccc(C[C@H]2NC[C@H](O)[C@H]2OC(=O)NCCNc2nc(N)nc3nc[nH]c23)cc1` [Cmpd V188056], the IC50 in the test with BCL-2 is more than 30 µM; with MYC (sfGFP/mCherry ratio), 20 to 30 µM; in the test with CCND1 (2 hrs at 30° C.), more than 30 µM; in the test with MCL-1, more than 30 µM.
Consider `COc1ccc(C[C@H]2NC[C@H](O)[C@H]2OC(=O)NCCc2n[nH]cc2C#N)cc1` [Cmpd V188126], for which the IC50 in the test on BCL-2, in the test on CCND1 (2 hrs at 30° C.) and in the test on MCL-1 was less than 10 µM in each case.
Take `COc1ccc(C[C@H]2NC[C@H](O)[C@H]2OC(=O)NCCc2cc(C)on2)cc1` [V187719, (2R,3S,4S)-4-hydroxy-2-[(4-methoxyphenyl)methyl]pyrrolidin-3-yl N-[2-(5-methyl-1,2-oxazol-3-yl)ethyl]carbamate]: the IC50 is 10 to 20 µM in the test on BCL-2, less than 10 µM in the test on MYC (sfGFP/mCherry ratio), less than 10 µM in the test on CCND1 (2 hrs at 30° C.) and less than 10 µM in the test on MCL-1.
Consider `COc1ccc(C[C@H]2NC[C@H](O)[C@H]2OC(=O)NNC(=O)c2ccccc2)cc1` [V187812, N′-({[(2R,3S,4S)-4-hydroxy-2-[(4-methoxyphenyl)methyl]pyrrolidin-3-yl]oxy}carbonyl)benzohydrazide], for which the IC50 in the test on BCL-2 was 10 to 20 µM; with MYC (sfGFP/mCherry ratio) it was less than 10 µM; with CCND1 (2 hrs at 30° C.), less than 10 µM; with MCL-1, less than 10 µM.
On to `COc1ccc(C[C@H]2NC[C@H](O)[C@H]2OC(=O)NCc2nc(Cl)c(Cl)[nH]2)cc1` [V187824, (2R,3S,4S)-4-hydroxy-2-[(4-methoxyphenyl)methyl]pyrrolidin-3-yl N-[(4,5-dichloro-1H-imidazol-2-yl)methyl]carbamate], for which the IC50 in the test with BCL-2, in the test with MYC (sfGFP/mCherry ratio), in the test with CCND1 (2 hrs at 30° C.) and in the test on MCL-1 was more than 30 µM each time.
As for `COc1ccc(C[C@H]2NC[C@H](O)[C@H]2OC(=O)NCCc2ccn(C)n2)cc1` [V187847, (2R,3S,4S)-4-hydroxy-2-[(4-methoxyphenyl)methyl]pyrrolidin-3-yl N-[2-(1-methylpyrazol-3-yl)ethyl]carbamate], the IC50 with BCL-2 is 20 to 30 µM; in the test on MYC (sfGFP/mCherry ratio), less than 10 µM; with CCND1 (2 hrs at 30° C.), 10 to 20 µM; in the test on MCL-1 it was less than 10 µM.
Regarding `COc1ccc(C[C@H]2NC[C@H](O)[C@H]2OC(=O)NCC2(F)CNC2)cc1` [V187877, (2R,3S,4S)-4-hydroxy-2-[(4-methoxyphenyl)methyl]pyrrolidin-3-yl N-[(3-fluoroazetidine-3-yl)methyl]carbamate], the IC50 in the test on BCL-2, with MYC (sfGFP/mCherry ratio), with CCND1 (2 hrs at 30° C.) and with MCL-1 was more than 30 µM in each case.
As for `COc1ccc(C[C@H]2NC[C@H](O)[C@H]2OC(=O)NCc2cccnn2)cc1` [V187916, (2R,3S,4S)-4-hydroxy-2-[(4-methoxyphenyl)methyl]pyrrolidin-3-yl N-(pyridazin-3-ylmethyl)carbamate], the IC50 with BCL-2, with MYC (sfGFP/mCherry ratio), with CCND1 (2 hrs at 30° C.) and with MCL-1 was less than 10 µM in each case.
Regarding `COc1ccc(C[C@H]2NC[C@H](O)[C@H]2OC(=O)NCCNC(=O)C2(N)CC2)cc1` [V187919, (2R,3S,4S)-4-hydroxy-2-[(4-methoxyphenyl)methyl]pyrrolidin-3-yl N-{2-[(1-aminocyclopropyl)formamido]ethyl}carbamate], the IC50 in the test with BCL-2 is more than 30 µM; in the test on MYC (sfGFP/mCherry ratio), 20 to 30 µM; with CCND1 (2 hrs at 30° C.) it was more than 30 µM.
Turning to `COc1ccc(C[C@H]2NC[C@H](O)[C@H]2OC(=O)NCc2ccc(I)cc2)cc1` [V187928, (2R,3S,4S)-4-hydroxy-2-[(4-methoxyphenyl)methyl]pyrrolidin-3-yl N-[(4-iodophenyl)methyl]carbamate], the IC50 in the test on BCL-2 was more than 30 µM; with MYC (sfGFP/mCherry ratio), 10 to 20 µM; with CCND1 (2 hrs at 30° C.), more than 30 µM; in the test on MCL-1, 10 to 20 µM.
`COc1ccc(C[C@H]2NC[C@H](O)[C@H]2OC(=O)NC[C@@H]2CCCNC2)cc1` [V187929, (2R,3S,4S)-4-hydroxy-2-[(4-methoxyphenyl)methyl]pyrrolidin-3-yl N-[(3R)-piperidin-3-ylmethyl]carbamate]: the IC50 in the test on BCL-2, with MYC (sfGFP/mCherry ratio) and in the test on MCL-1 was more than 30 µM each time.
`COc1ccc(C[C@H]2NC[C@H](O)[C@H]2OC(=O)NC[C@H]2CCCNC2)cc1` [V187930, (2R,3S,4S)-4-hydroxy-2-[(4-methoxyphenyl)methyl]pyrrolidin-3-yl N-[(3S)-piperidin-3-ylmethyl]carbamate]: the IC50 is more than 30 µM with BCL-2, 20 to 30 µM with MYC (sfGFP/mCherry ratio), 20 to 30 µM with CCND1 (2 hrs at 30° C.) and 20 to 30 µM with MCL-1.
Turning to `COc1ccc(C[C@H]2NC[C@H](O)[C@H]2OC(=O)NCCc2ccc(-c3ccccc3)cc2)cc1` [V187979], the half-inhibitory concentration (IC50) in the test on BCL-2, with MYC (sfGFP/mCherry ratio) and with MCL-1 was more than 30 µM each time.
As for `COc1ccc(C[C@H]2NC[C@H](O)[C@H]2OC(=O)NCCNC(=O)[C@@H]2CCCN2)cc1` [V188015, (2R,3S,4S)-4-hydroxy-2-[(4-methoxyphenyl)methyl]pyrrolidin-3-yl N-{2-[(2S)-pyrrolidin-2-ylformamido]ethyl}carbamate], the figures for the IC50 with BCL-2, in the test with CCND1 (2 hrs at 30° C.) and in the test with MCL-1 were more than 30 µM, 10 to 20 µM and 10 to 20 µM, respectively.
Regarding `COc1ccc(C[C@H]2NC[C@H](O)[C@H]2OC(=O)NCc2ccncc2Cl)cc1` [V188052, (2R,3S,4S)-4-hydroxy-2-[(4-methoxyphenyl)methyl]pyrrolidin-3-yl N-[(3-chloropyridin-4-yl)methyl]carbamate], the IC50 was 10 to 20 µM in the test on BCL-2, less than 10 µM in the test with MYC (sfGFP/mCherry ratio) and less than 10 µM with MCL-1.
Regarding “(2R,3S,4S)-2-(2,1,3-benzoxadiazol-5-ylmethyl)-4-hydroxypyrrolidin-3-ylN-[(3-fluorophenyl)methyl]carbamate [V192383]”, the IC50 in the test with NFKB1, in the test on MYC (setting [1]) and in the test with CCND1 (IVTT assay) was less than 10 µM throughout.
With “(2R,3S,4S)-2-{[2-fluoro-4-(1,3-oxazol-5-yl)phenyl]methyl}-4-hydroxypyrrolidin-3-ylN-[(3-fluorophenyl)methyl]carbamate [V192861]”, the IC50 in the test on NFKB1, with MYC (setting [1]) and with CCND1 (IVTT assay) was less than 10 µM throughout.
“(3S,4S,5R)-4-({[(3-fluorophenyl)methyl]carbamoyl}oxy)-5-{[4-(1,3-oxazol-5-yl)phenyl]methyl}pyrrolidin-3-yl acetate [V192392]”: the IC50 in the test with NFKB1, with MYC (setting [1]) and with CCND1 (IVTT assay) was less than 10 µM in each case.
